Data as given in patent US8178668B2, “2-aminopyridine kinase inhibitors” (OSI Pharmaceuticals, LLC, priority 2008, dated 2012).
Counter-ions that a name gives are not always drawn.

How the values were obtained:
RON (human) = RON (human) (Homo sapiens, UniProt Q04912); assay: RON kinase AlphaScreen assay (Km of ATP); format: biochemical; conditions: ATP at Km; at least duplicate experiments
Procedure, shortened: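 Human RON phosphorylated biotinylated poly(Glu,Tyr) (200 ng/μL) at Km ATP in 50 mM HEPES pH 7.4, 12.5 mM MgCl2, 1% glycerol, 0.334 mM vanadate, 1% DMSO. Reaction ran 30 min at RT after enzyme addition. Product was detected by AlphaScreen with PT66 beads after 1 h.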

MET (human) = MET (human) (Homo sapiens, UniProt P08581); assay: MET kinase AlphaScreen assay (Km of ATP); format: biochemical; conditions: ATP at Km; at least duplicate experiments
Procedure, shortened: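 Biotinylated poly(Glu,Tyr) (200 ng/μL) phosphorylated by MET with ATP at an enzyme-optimized level, in 50 mM HEPES pH 7.4 with Mg2+/Mn2+ and vanadate, 1% DMSO. Reaction runs 60 min at RT. PT66 AlphaScreen donor/acceptor beads are added and signal is read after 1 h.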

Chain of RON (human) (Q04912 25-1400): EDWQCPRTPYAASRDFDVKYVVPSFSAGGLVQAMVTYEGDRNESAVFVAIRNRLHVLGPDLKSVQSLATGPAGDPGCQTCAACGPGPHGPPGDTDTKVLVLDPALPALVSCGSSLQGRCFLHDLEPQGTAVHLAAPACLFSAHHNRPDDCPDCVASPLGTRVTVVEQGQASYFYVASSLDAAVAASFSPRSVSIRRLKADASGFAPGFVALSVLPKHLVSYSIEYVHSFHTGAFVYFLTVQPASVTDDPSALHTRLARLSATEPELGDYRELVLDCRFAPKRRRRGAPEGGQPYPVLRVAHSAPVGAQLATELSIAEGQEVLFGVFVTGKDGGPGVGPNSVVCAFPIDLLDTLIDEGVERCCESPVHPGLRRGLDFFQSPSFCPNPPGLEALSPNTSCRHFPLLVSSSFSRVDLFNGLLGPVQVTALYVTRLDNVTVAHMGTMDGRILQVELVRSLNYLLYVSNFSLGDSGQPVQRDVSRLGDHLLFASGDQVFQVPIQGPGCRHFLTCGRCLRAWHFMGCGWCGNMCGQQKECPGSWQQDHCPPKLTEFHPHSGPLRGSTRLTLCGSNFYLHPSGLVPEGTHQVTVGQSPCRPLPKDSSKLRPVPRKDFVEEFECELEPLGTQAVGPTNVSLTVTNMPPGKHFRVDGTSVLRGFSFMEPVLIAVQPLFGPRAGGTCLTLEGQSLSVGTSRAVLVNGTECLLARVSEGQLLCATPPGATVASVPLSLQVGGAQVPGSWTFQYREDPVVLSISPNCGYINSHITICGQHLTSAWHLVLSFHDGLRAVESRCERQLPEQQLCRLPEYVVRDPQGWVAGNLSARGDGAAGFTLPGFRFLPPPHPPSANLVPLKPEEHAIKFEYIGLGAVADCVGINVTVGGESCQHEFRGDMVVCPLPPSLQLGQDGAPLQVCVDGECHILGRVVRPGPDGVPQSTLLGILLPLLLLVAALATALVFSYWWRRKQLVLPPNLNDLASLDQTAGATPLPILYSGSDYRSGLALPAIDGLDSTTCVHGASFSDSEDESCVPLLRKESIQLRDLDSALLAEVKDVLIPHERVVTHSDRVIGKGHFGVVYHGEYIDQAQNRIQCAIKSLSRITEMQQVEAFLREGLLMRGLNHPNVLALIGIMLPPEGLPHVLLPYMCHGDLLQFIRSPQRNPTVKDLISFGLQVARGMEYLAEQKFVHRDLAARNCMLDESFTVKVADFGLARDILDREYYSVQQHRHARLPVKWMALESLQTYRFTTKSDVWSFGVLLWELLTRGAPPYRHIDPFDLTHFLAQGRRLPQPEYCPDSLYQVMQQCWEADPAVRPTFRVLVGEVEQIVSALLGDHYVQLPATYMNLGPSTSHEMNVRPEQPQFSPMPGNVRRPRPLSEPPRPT
Chain of MET (human) (P08581 25-1390): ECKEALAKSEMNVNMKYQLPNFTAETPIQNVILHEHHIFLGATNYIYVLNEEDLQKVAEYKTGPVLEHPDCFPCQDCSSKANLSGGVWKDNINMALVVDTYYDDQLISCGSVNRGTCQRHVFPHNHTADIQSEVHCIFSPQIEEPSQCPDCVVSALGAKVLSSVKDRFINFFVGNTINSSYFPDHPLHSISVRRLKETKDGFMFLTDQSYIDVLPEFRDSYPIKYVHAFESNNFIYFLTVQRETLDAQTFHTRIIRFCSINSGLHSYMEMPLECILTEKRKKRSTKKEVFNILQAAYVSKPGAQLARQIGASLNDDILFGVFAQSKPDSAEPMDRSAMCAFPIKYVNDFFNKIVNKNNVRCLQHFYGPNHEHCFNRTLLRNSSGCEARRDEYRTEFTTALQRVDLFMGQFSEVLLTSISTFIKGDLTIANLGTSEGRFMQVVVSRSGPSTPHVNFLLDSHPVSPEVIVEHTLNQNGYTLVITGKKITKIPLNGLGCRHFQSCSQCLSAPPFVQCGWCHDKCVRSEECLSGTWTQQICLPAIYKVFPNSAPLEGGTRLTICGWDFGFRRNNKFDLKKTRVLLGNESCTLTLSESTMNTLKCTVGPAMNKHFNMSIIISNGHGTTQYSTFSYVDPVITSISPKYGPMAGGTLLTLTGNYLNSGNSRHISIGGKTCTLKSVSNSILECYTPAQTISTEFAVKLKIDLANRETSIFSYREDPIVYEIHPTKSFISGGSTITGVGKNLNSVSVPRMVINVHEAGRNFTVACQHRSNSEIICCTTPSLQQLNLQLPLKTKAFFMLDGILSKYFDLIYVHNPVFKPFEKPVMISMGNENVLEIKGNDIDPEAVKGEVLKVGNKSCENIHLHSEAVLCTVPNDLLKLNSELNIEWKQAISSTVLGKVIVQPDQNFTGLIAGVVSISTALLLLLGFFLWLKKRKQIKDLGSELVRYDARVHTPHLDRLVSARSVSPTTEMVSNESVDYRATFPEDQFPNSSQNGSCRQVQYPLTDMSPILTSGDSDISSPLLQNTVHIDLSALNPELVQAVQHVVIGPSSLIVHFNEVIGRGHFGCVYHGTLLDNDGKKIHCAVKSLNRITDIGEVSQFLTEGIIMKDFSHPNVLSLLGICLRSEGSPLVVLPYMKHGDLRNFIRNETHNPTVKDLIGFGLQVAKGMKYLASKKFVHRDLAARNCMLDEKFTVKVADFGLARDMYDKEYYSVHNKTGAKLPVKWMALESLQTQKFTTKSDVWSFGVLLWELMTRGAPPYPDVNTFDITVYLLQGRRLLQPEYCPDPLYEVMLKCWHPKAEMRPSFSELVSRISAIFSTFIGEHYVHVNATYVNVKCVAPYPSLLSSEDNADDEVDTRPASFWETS

Compound	IC50 (RON (human))	IC50 (MET (human))
Nc1ncc(-c2cnn(C3CCN(CC(=O)O)CC3)c2)cc1-c1nc2ccccc2s1 [Example 161, {4-[4-(6-Amino-5-benzothiazol-2-ylpyridin-3-yl)-pyrazol-1-yl]-piperidin-1-yl}-acetic acid]	100 to 1000 nM	≤ 100 nM
NC(=O)CN1CCC(n2cc(-c3cnc(N)c(-c4nc5ccccc5s4)c3)cn2)CC1 [Example 162, 2-{4-[4-(6-Amino-5-benzothiazol-2-ylpyridin-3-yl)-pyrazol-1-yl]-piperidin-1-yl}-acetamide]	100 to 1000 nM	≤ 100 nM
CNC(=O)CN1CCC(n2cc(-c3cnc(N)c(-c4nc5ccccc5s4)c3)cn2)CC1 [Example 163, 2-{4-[4-(6-Amino-5-benzothiazol-2-ylpyridin-3-yl)-pyrazol-1-yl]-piperidin-1-yl}-N-methylacetamide]	100 to 1000 nM	100 to 1000 nM
CN(C)C(=O)CN1CCC(n2cc(-c3cnc(N)c(-c4nc5ccccc5s4)c3)cn2)CC1 [Example 164, 2-{4-[4-(6-Amino-5-benzothiazol-2-ylpyridin-3-yl)-pyrazol-1-yl]-piperidin-1-yl}-N,N-dimethylacetamide]	100 to 1000 nM	100 to 1000 nM
Nc1ncc(-c2cnn(C3CCN(CC(=O)N4CCC4)CC3)c2)cc1-c1nc2ccccc2s1 [Example 165, 2-{4-[4-(6-Amino-5-benzothiazol-2-ylpyridin-3-yl)-pyrazol-1-yl]-piperidin-1-yl}-1-azetidin-1-ylethanone]	100 to 1000 nM	100 to 1000 nM
Nc1ncc(-c2cnn(C3CCN(CC(=O)N4CCCC4)CC3)c2)cc1-c1nc2ccccc2s1 [Example 166, 2-{4-[4-(6-Amino-5-benzothiazol-2-ylpyridin-3-yl)-pyrazol-1-yl]-piperidin-1-yl}-1-pyrrolidin-1-ylethanone]	100 to 1000 nM	≤ 100 nM
Nc1ncc(-c2cnn(C3CCN(CC(=O)N4CCC(O)C4)CC3)c2)cc1-c1nc2ccccc2s1 (stereo not drawn) [Example 167, 2-{4-[4-(6-Amino-5-benzothiazol-2-ylpyridin-3-yl)-pyrazol-1-yl]-piperidin-1-yl}-1-(3-hydroxypyrrolidin-1-yl)ethanone]	100 to 1000 nM	≤ 100 nM
Nc1ncc(-c2cnn(C3CCN(CC(=O)N4CCCCC4)CC3)c2)cc1-c1nc2ccccc2s1 [Example 168, 2-{4-[4-(6-Amino-5-benzothiazol-2-ylpyridin-3-yl)-pyrazol-1-yl]-piperidin-1-yl}-1-piperidin-1-ylethanone]	100 to 1000 nM	100 to 1000 nM
Nc1ncc(-c2cnn(C3CCN(CC(=O)N4CCC(O)CC4)CC3)c2)cc1-c1nc2ccccc2s1 [Example 169, 2-{4-[4-(6-Amino-5-benzothiazol-2-ylpyridin-3-yl)-pyrazol-1-yl]-piperidin-1-yl}-1-(4-hydroxypiperidin-1-yl)ethanone]	100 to 1000 nM	≤ 100 nM
Nc1ncc(-c2cnn(C3CCN(CC(=O)N4CCOCC4)CC3)c2)cc1-c1nc2ccccc2s1 [Example 170, 2-{4-[4-(6-Amino-5-benzothiazol-2-ylpyridin-3-yl)-pyrazol-1-yl]-piperidin-1-yl}-1-morpholin-4-ylethanone]	100 to 1000 nM	≤ 100 nM
Nc1ncc(-c2cnn(C3CCN(CC(=O)NCCO)CC3)c2)cc1-c1nc2ccccc2s1 [Example 171, 2-{4-[4-(6-Amino-5-benzothiazol-2-ylpyridin-3-yl)-pyrazol-1-yl]-piperidin-1-yl}-N-(2-hydroxyethyl)-acetamide]	100 to 1000 nM	≤ 100 nM
COCCNC(=O)CN1CCC(n2cc(-c3cnc(N)c(-c4nc5ccccc5s4)c3)cn2)CC1 [Example 172, 2-{4-[4-(6-Amino-5-benzothiazol-2-ylpyridin-3-yl)-pyrazol-1-yl]-piperidin-1-yl}-N-(2-methoxyethyl)-acetamide]	100 to 1000 nM	100 to 1000 nM
COCCN(CCOC)C(=O)CN1CCC(n2cc(-c3cnc(N)c(-c4nc5ccccc5s4)c3)cn2)CC1 [Example 173, 2-{4-[4-(6-Amino-5-benzothiazol-2-ylpyridin-3-yl)-pyrazol-1-yl]-piperidin-1-yl}-N,N-bis-(2-methoxyethyl)-acetamide]	100 to 1000 nM	100 to 1000 nM
Nc1ncc(-c2cnn([C@@H]3CN[C@@H](C(=O)O)C3)c2)cc1-c1nc2ccccc2s1 [Example 174, (2R,4S)-4-[4-(6-Amino-5-benzothiazol-2-ylpyridin-3-yl)-pyrazol-1-yl]-pyrrolidine-2-carboxylic acid]	1000 to 20000 nM	≤ 100 nM
CN(C)C(=O)[C@H]1C[C@H](n2cc(-c3cnc(N)c(-c4nc5ccccc5s4)c3)cn2)CN1 [Example 175, (2R,4S)-4-[4-(6-Amino-5-benzothiazol-2-ylpyridin-3-yl)-pyrazol-1-yl]-pyrrolidine-2-carboxylic acid dimethylamide]	100 to 1000 nM	100 to 1000 nM
Nc1ncc(-c2cnn([C@@H]3CN[C@@H](C(=O)N4CCCC4)C3)c2)cc1-c1nc2ccccc2s1 [Example 176, {(2R,4S)-4-[4-(6-Amino-5-benzothiazol-2-ylpyridin-3-yl)-pyrazol-1-yl]-pyrrolidin-2-yl}-pyrrolidin-1-ylmethanone]	100 to 1000 nM	100 to 1000 nM
Nc1ncc(-c2cnn([C@@H]3CN[C@@H](C(=O)N4CCC(O)C4)C3)c2)cc1-c1nc2ccccc2s1 (stereo partly drawn) [Example 177, {(2R,4S)-4-[4-(6-Amino-5-benzothiazol-2-ylpyridin-3-yl)-pyrazol-1-yl]-pyrrolidin-2-yl}-(3-hydroxypyrrolidin-1-yl)methanone]	100 to 1000 nM	≤ 100 nM

Compound	IC50 (RON (human))	IC50 (MET (human))
Nc1ncc(-c2cnn([C@@H]3CN[C@@H](C(=O)N4CCCCC4)C3)c2)cc1-c1nc2ccccc2s1 [Example 178, {(2R,4S)-4-[4-(6-Amino-5-benzothiazol-2-ylpyridin-3-yl)-pyrazol-1-yl]-pyrrolidin-2-yl}-piperidin-1-ylmethanone]	100 to 1000 nM	100 to 1000 nM
Nc1ncc(-c2cnn([C@@H]3CN[C@@H](C(=O)N4CCOCC4)C3)c2)cc1-c1nc2ccccc2s1 [Example 179, {(2R,4S)-4-[4-(6-Amino-5-benzothiazol-2-ylpyridin-3-yl)-pyrazol-1-yl]-pyrrolidin-2-yl}-morpholin-4-ylmethanone]	100 to 1000 nM	≤ 100 nM
Nc1ncc(-c2cnn(C3CNC3)c2)cc1-c1nc2ccccc2s1 [Example 181, 5-(1-Azetidin-3-yl-1H-pyrazol-4-yl)-3-benzothiazol-2-ylpyridin-2-ylamine trifluoroacetate]	100 to 1000 nM	≤ 100 nM
CN1CCN(C(=O)c2ccc(-c3cnc(N)c(-c4nc5ccccc5s4)c3)cc2)CC1 [Example 182, [4-(6-Amino-5-benzothiazol-2-ylpyridin-3-yl)phenyl]-(4-methylpiperazin-1-yl)methanone]	1000 to 20000 nM	100 to 1000 nM
CN(C)C(=O)c1ccc(-c2cnc(N)c(-c3nc4ccccc4s3)c2)cc1 [Example 183, 4-(6-Amino-5-benzothiazol-2-ylpyridin-3-yl)-N,N-dimethylbenzamide]	1000 to 20000 nM	1000 to 20000 nM
CN1CCN(C(=O)c2cccc(-c3cnc(N)c(-c4nc5ccccc5s4)c3)c2)CC1 [Example 184, [3-(6-Amino-5-benzothiazol-2-ylpyridin-3-yl)phenyl]-(4-methylpiperazin-1-yl)methanone]	1000 to 20000 nM	1000 to 20000 nM
CN(C)CCNC(=O)c1ccc(-c2cnc(N)c(-c3nc4ccccc4s3)c2)cc1 [Example 185, 4-(6-Amino-5-benzothiazol-2-ylpyridin-3-yl)-N-(2-dimethylaminoethyl)benzamide]	1000 to 20000 nM	100 to 1000 nM
CN(C)C(=O)c1cccc(-c2cnc(N)c(-c3nc4ccccc4s3)c2)c1 [Example 186, 3-(6-Amino-5-benzothiazol-2-ylpyridin-3-yl)-N,N-dimethylbenzamide]	> 20000 nM	1000 to 20000 nM
CN(C)CCNC(=O)c1cccc(-c2cnc(N)c(-c3nc4ccccc4s3)c2)c1 [Example 187, 3-(6-Amino-5-benzothiazol-2-ylpyridin-3-yl)-N-(2-dimethylaminoethyl)benzamide]	1000 to 20000 nM	1000 to 20000 nM
CN(C)CCCOc1ccc(-c2cnc(N)c(-c3nc4ccccc4s3)c2)cn1 [Example 188, 5-Benzothiazol-2-yl-6′-(3-dimethylaminopropoxy)-[3,3′]bipyridinyl-6-ylamine]	1000 to 20000 nM	1000 to 20000 nM
Nc1ncc(-c2ccc(C(=O)N3CCOCC3)cc2)cc1-c1nc2ccccc2s1 [Example 189, [4-(6-Amino-5-benzothiazol-2-ylpyridin-3-yl)phenyl]morpholin-4-ylmethanone]	1000 to 20000 nM	1000 to 20000 nM
NC(=O)c1ccc(-c2cnc(N)c(-c3nc4ccccc4s3)c2)cc1 [Example 190, 4-(6-Amino-5-benzothiazol-2-ylpyridin-3-yl)benzamide]	> 20000 nM	1000 to 20000 nM
CCN(CC)C(=O)c1ccc(-c2cnc(N)c(-c3nc4ccccc4s3)c2)cc1 [Example 191, 4-(6-Amino-5-benzothiazol-2-ylpyridin-3-yl)-N,N-diethylbenzamide]	> 20000 nM	> 20000 nM
Nc1ncc(-c2cccc(C(=O)NCc3ccco3)c2)cc1-c1nc2ccccc2s1 [Example 192, 3-(6-Amino-5-benzothiazol-2-ylpyridin-3-yl)-N-furan-2-ylmethylbenzamide]	1000 to 20000 nM	1000 to 20000 nM
Nc1ncc(-c2ccc(C(=O)NCc3ccco3)cc2)cc1-c1nc2ccccc2s1 [Example 193, 4-(6-Amino-5-benzothiazol-2-ylpyridin-3-yl)-N-furan-2-ylmethylbenzamide]	1000 to 20000 nM	1000 to 20000 nM
CNC(=O)c1cccc(-c2cnc(N)c(-c3nc4ccccc4s3)c2)c1 [Example 194, 3-(6-Amino-5-benzothiazol-2-ylpyridin-3-yl)-N-methylbenzamide]	> 20000 nM	> 20000 nM
